From PubChem BioAssay AID1963434 (Molecular Pharmacology Branch, DTP, NCI, 2024)
“And” between values parts separate entries of the source, which are not always exact repeats. Identical values can stand only once.

Test system: 755483-174-R-J1-PDC complex spheroid growth, percent test/control
Experiment: Anticancer human tumor 755483-174-R-J1-PDC patient-derived rhabdomyosarcoma cell line growth inhibition [Asc]
Conditions: for viability, T/C: stronger effect = lower value
Protocol: Multicellular complex tumor spheroid response to apoptosis pathway targeting inhibitors Alrizomadlin, Pelcitoclax, and Dasminapant in combination with a variety of drugs and investigational agents in selected tumor cell lines
The MDM2 inhibitor alrizomadlin, the Bcl-2/Bcl-xL inhibitor pelcitoclax, and the IAPs inhibitor dasminapant were evaluated both individually and in combination with standard of care and investigational anticancer small molecules within a complex spheroid model of solid tumors. . Complex spheroids include a stromal component modeled by human endothelial cells (HUVEC) and fibroblasts modeled by human mesenchymal stem cells (MSCs). The concentration ranges selected for each drug and investigational agent were based upon clinically achievable concentrations if the clinical Cmax of the agent was known.
Compounds. The drugs and investigational agents: alrizomadlin (APG-115; NSC831270), pelcitoclax (APG-1252; NSC835773), dasminapant (APG-1387;NSC834197), TAK-243 (NSC785004), copanlisib (NSC809693), olaparib (NSC753686), talazoparib (NSC767125), cobimetinib (NSC 768068), eltanexor (KPT-8602, NSC 794443), abemaciclib (NSC 768073), sotorasib (NSC818433), adagrasib (NSC 831453), MRTX-1133 (NSC 836407), Iadademestat (ORY1001, NSC 806812), and RMC-4630 (NSC839698), were obtained from the NCI Developmental Therapeutics Program Chemical Repository. The FDA-approved anticancer drug set is available from the Developmental Therapeutics Program at https://dtp.cancer.gov/organization/dscb/obtaining/available plates.htm. […] The stock solutions were prepared in dimethyl sulfoxide (DMSO, Sigma-Aldrich, St. Louis, MO, cat. D2650) at 800-fold the tested concentration and stored at -70 degrees C prior to their use. All drugs and investigational agents were tested over a range starting from a high concentration at or near the clinical Cmax and decreasing in half-log increments. If the clinical Cmax for an agent had not been determined, the highest concentration tested was 10 microM.
The patient-derived cancer (PDC) cell lines include five colon adenocarcinomas: 186277-243-T-J2-PDC, 616215-338-R-J1-PDC, 439559-082-T-J2-PDC, 463943-066-T-J2-PDC, and 519858-162-T-J1-PDC; three pancreatic carcinomas: 323965-272-R-J2-PDC, 521955-158-R6-J3-PDC, and 521955-158-R2-J5-PDC; two uterine sarcomas: 327498-152-R-J2-PDC and 993429-296-R-J1-PDC; two rhabdomyosarcomas: 755483-174-R-J1-PDC and 772245-204-R-J1-PDC; two soft tissue sarcomas: 126254-015-R-J1-PDC and 494315-158-R-J1-PDC; two malignant fibrous histiocytomas: 317291-083-R-J1-PDC and 596521-263-R-J1-PDC; two breast carcinomas: 171881-019-R-J1-PDC and 885512-296-R-J2-PDC; and one ovarian carcinoma: 6556581-035-R-J-PDC were obtained from the NCI PDMR, (https://pdmr.cancer.gov). The established cell lines HSSY-2 synovial sarcoma (RRID:CVCL 8719), SYO-1 synovial sarcoma (RRID:CVCL_7146), MPNST malignant peripheral neural sheath tumor were obtained from the Sloan Kettering Institute. The following established cell lines were purchased from the American Type Culture Collection (ATCC, Manassas, VA), Sor the received from the NCI repository:, PANC-1 pancreatic carcinoma (CRL-1469, RRID:CVCL_0480), OVCAR-5 ovarian carcinoma (RRID:CVCL_1628), OVCAR-8 ovarian carcinoma (RRID:CVCL_1629), , MCF-7 breast carcinoma (CRL-12584, RRID:CVCL_0031), MDA-MB-231 breast carcinoma (CRL-12532, RRID:CVCL_0062), NCI-H1876 small cell lung carcinoma (CRL-5902, RRID:CVCL_1503), NCI-H510A small cell lung carcinoma (HTB-184, RRID:CVCL_1565), NCI-H1417 (CRL-5869, RRID:CVCL_1469), and NCI-H196 small cell lung carcinoma (CRL-5823, RRID:CVCL_1509). Dr. Peter Houghton (Greehey Children's Cancer Research Institute, University of Texas Health Science Center, San Antonio, TX) provided Rh-18 rhabdomyosarcoma (RRID:CVCL_1659). Pooled donor human umbilical vein endothelial cells (HUVEC, Lonza, cat. CC-2519) and human mesenchymal stem cells (hMSC, Lonza, cat. PT-2501) were purchased from Lonza (Walkersville, MD).
Cell Culture. […]
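Further: spheroids exposed to compounds for seven days before readout.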

| IC50 (curve of compound) | IC50 (compound alone, run of 09/27/2022) [nM] | Structure (SMILES) | viability, T/C (compound 0.0316 µM) | viability, T/C (compound 0.1 µM) | viability, T/C (compound 0.316 µM) | viability, T/C (compound 1 µM) | viability, T/C (compound 3.16 µM) | viability, T/C (compound 10 µM) | viability, T/C (compound 0.00949 µM) | viability, T/C (compound 0.00316 µM) | viability, T/C (compound 0.01 µM) |
| --- | --- | --- | --- | --- | --- | --- | --- | --- | --- | --- | --- |
| 6770 nM and 6630 nM and > 10000 nM | – | C#Cc1c(F)ccc2cc(O)cc(-c3ncc4c(N5CC6CCC(C5)N6)nc(OCC56CCCN5CC(F)C6)nc4c3F)c12 (configuration not stated) | 97.7% and 125% and 101% | 114% and 91.6% and 119% | 92.6% and 113% and 90.3% | 117% and 100% and 127% | 85.7% and 76.6% and 92.3% | 31.7% and 34.9% and 58.8% | – | – | – |
| 1810 nM and 1760 nM and 1880 nM | – | C=C(F)C(=O)N1CCN(c2nc(OCC3CCCN3C)nc3c2CCN(c2cccc4cccc(Cl)c24)C3)CC1CC#N (configuration not stated) | 95.7% and 76.6% and 114% | 91% and 57% and 109% | 95% and 99.3% and 78.9% | 80.1% and 74.6% and 88.8% | 21.4% and 23.7% and 19.3% | 0.14% and 0.16% and 0.18% | – | – | – |
| > 10000 nM | – | C=CC(=O)N1CCN(c2nc(=O)n(-c3c(C)ccnc3C(C)C)c3nc(-c4c(O)cccc4F)c(F)cc23)C(C)C1 (configuration not stated) | 99.7% and 81.3% and 102% | 98.4% and 72.6% and 109% | 115% and 63% and 100% | 94.8% and 72.7% and 121% | 117% and 78.5% and 88.8% | 74.8% and 69.6% and 85.6% | – | – | – |
| > 3000 nM | > 3000 | CCN1C(C(=O)NC23CCC(C(=O)O)(CC2)CC3)C(c2cccc(Cl)c2F)C2(C(=O)Nc3cc(Cl)ccc32)C12CCCCC2 (configuration not stated) | – | – | – | – | – | – | 92.3% and 75.3% | – | – |
| > 1000 nM | – | CCN1CCN(Cc2ccc(Nc3ncc(F)c(-c4cc(F)c5nc(C)n(C(C)C)c5c4)n3)nc2)CC1 | 119% and 93.6% and 74.1% | 120% and 83.7% and 118% | 115% and 99.3% and 99.2% | 113% and 132% and 99% | – | – | – | 112% and 99% and 77.5% | 85.6% and 83.7% and 100% |
| < 3.16 nM and 23 nM | – | CNC(C)C(=O)NC1CN(S(=O)(=O)c2cccc(S(=O)(=O)N3CCC4CCC(C(=O)NC(c5ccccc5)c5ccccc5)N4C(=O)C(NC(=O)C(C)NC)C3)c2)CCC2CCC(C(=O)NC(c3ccccc3)c3ccccc3)N2C1=O (configuration not stated) | – | 37.5% [middle of 15 runs] | – | – | – | – | – | 48.1% and 88.5% | – |
| 31.3 nM and 46.2 nM and 104 nM | – | COc1c(OCCCN2CCOCC2)ccc2c3n(c(=NC(=O)c4cnc(N)nc4)nc12)CCN3 | 48.4% and 58.9% and 88.5% | 32.9% and 32.1% and 51.3% | 11.3% and 12% and 19.7% | 5.83% and 6.96% and 8.42% | – | – | – | 81.5% and 75.7% and 125% | 68.4% and 71.7% and 105% |
| – | – | Cc1c(S(C)(=O)=O)c(-c2cc(F)cc(N3CCN(c4ccc(NS(=O)(=O)c5ccc(NC(CCN6CCC(C(=O)OCCCP(=O)(O)O)CC6)CSc6ccccc6)c(S(=O)(=O)C(F)(F)F)c5)cc4)CC3)c2)c(-c2ccc(Cl)cc2)n1C(C)C (configuration not stated) | – | – | – | – | – | 41.7% [middle of 14 runs] | – | – | – |
